Test results taken from article PMC12282092, “Discovery of a non-nucleoside inhibitor that binds to a novel site in the palm domain of the respiratory syncytial virus RNA-dependent RNA polymerase” (Journal of Virology, 2025).
Like-named read-outs stand apart in the source and are kept apart here.

What was measured:
[1] = molecular target: T1, RSV L+P (Human respiratory syncytial virus A, UniProt P28887); assay: Pyrophosphate luminescence detection assay, full-length RSV L+P; type: biochemical; conditions: pyrophosphate luminescence detection assay
T1 construct: Biochemical activity of 1 and 22 against full-length RSV L+P; Twin-Strep-tag (N); made in house; host or cells: Sf9 insect cells (baculovirus, pFastBac Dual)
Procedure: Working solutions (3×) of RSV L+P (60 nM), substrate (30 µM each of GTP, CTP, UTP, 300 µM ATPαS [Jena Bioscience], 15 µM RNA template TrC-25), detection reagents (6 nM Luciferase, 900 µM luciferin, 3 U/µL ATP Sulfurylase [BioVision], 15 µM adenosine phosphosulfate [APS], 3 mM coenzyme A), were prepared in complete assay buffer. Compounds were dissolved in dimethyl sulfoxide (DMSO) and dispensed to white, 1536-well cyclic olefin copolymer (COC) plates (Corning, 9145BC) using an Echo Acoustic Liquid Handler (Beckman Coulter, San Jose, CA). Substrate (1 µL) and detection reagents (1 µL) were dispensed using a Multidrop Combi Dispenser (ThermoFisher, Waltham, MA), followed by enzyme (1 µL) to initiate the reaction. Final screening concentrations were 20 nM RSV L+P, 10 µM GTP/CTP/UTP, 100 µM ATPαS, 5 µM TrC-25, 2 nM Luciferase (Promega), 300 µM luciferin (Promega), 1 U/µL ATP sulfurylase, 5 µM APS, and 1 mM CoA. […] Luminescence was detected using the PHERAStar FSX (BMG Labtech, Ortenberg, Germany).

[2] = system: rgRSV224 virus (RSV A2) in HeLa cells; assay: HeLa cell rgRSV224 eGFP reporter viral proliferation assay; type: cell-based; conditions: RSV eGFP phenotypic assay in HeLa cells; for EC50: MOI 1, 72 h, n ≥ 2, read-out: Cellular EC50
Procedure: (§1) Compound serial dilutions (9 point, fourfold) were prepared in DMSO, and 200 nL was transferred to black, 384-well, clear-bottom microtiter plates (Corning, Amsterdam, The Netherlands) via acoustic drop ejection ([36], [50]). […] Then, 20 µL of a HeLa cell suspension (3,000 cells/well) was added with a Multidrop Combi, and cells were incubated at 37°C in a 5% CO2 atmosphere. After 72 h, GFP expression was quantified using an EnVision Multimode Plate Reader (Perkin Elmer, Zaventem, Belgium), and data were normalized to untreated and media-only (no virus) controls. Cytotoxicity was determined in parallel using the ATPlite kit (Perkin Elmer, Zaventem, Belgium). Luminescence was measured in white, 384-well microtiter plates (Corning) on a ViewLux uHTS Microplate Imager apparatus (PerkinElmer, Zaventem, Belgium), and cellular ATP content was quantified by normalizing to untreated and media-only (no cell) controls. […] Figures were prepared with GraphPad Prism.

[3] = system: RSV-B/05_036549; assay: microbe, parasite or virus in culture; type: cell-based; conditions: human respiratory syncytial virus; RSV-B/05_036549, HeLa cells, RT-qPCR
[4] = molecular target: T1, RSV L+P; assay: Mode of inhibition by progress curve analysis; type: biochemical
Procedure: To determine the mode of inhibition, progress curve analysis was carried out with the full-length complex.

[5] = molecular target: human mitochondrial RNA polymerase (POLRMT) (Homo sapiens, UniProt O00411); assay: POLRMT assay
[6] = HeLa cytotoxicity assay (ATPlite); conditions: human, HeLa cells
Procedure: as §1

[7] = system: HeLa cells; assay: HeLa cytotoxicity assay (ATPlite); conditions: HeLa cells
Procedure: as §1

[8] = system: RSV replicon in APC-126 cells; assay: APC-126 minireplicon assay; type: cell-based; conditions: human respiratory syncytial virus, APC-126, 72 h
Procedure: (§2) A proprietary BHK-based cell line, APC-126, harboring the RSV replicon, was obtained from Apath (New York, USA) and cultured in DMEM/Ham’s F-12 50/50, supplemented with 10% (vol/vol) FBS (Gibco), 1% (vol/vol) penicillin-streptomycin (Gibco), 1% (vol/vol) MEM non-essential amino acids (Gibco), 5% (vol/vol) Tryptose Phosphate Broth (Sigma-Aldrich), and 10 µg/mL blasticidin (Invitrogen) at 37°C in a humidified 5% CO2 incubator ([36]). Cells were plated (3,500 cells/well) in white, 96-well, clear-bottom plates (Corning) and incubated for 24 h. Compound serial dilutions (9 point, threefold) were prepared in DMSO and diluted 10-fold in culture media before treating cells (final [DMSO] = 1% [vol/vol]). […] In parallel, cytotoxicity was measured using CellTiter-Glo (Promega) under the same conditions. […] Figures were prepared with GraphPad Prism.

[9] = molecular target: T1, RSV L+P; assay: Yonetani-Theorell mutual exclusivity analysis; type: biochemical
Procedure: Here, matrix titrations of the two inhibitors were carried out, and initial rates were determined for each inhibitor combination. Data were fitted to the Yonetani-Theorell equation (Supp. equation S1) to determine the interaction constant, γ. […] When γ > 1, binding is antagonistic, and as γ approaches infinity, the ligands are considered mutually exclusive. Conversely, when γ < 1, binding is synergistic.

[10] = APC-126 cytotoxicity assay (CellTiter-Glo); type: cell-based; conditions: hamster; APC-126, 72 h; read-out: Replicon CC50
Procedure: as §2

[11] = molecular target: T1, RSV L+P; assay: De novo RNA synthesis assay (TrC-14, +3 site); type: biochemical; conditions: TrC-14 template
Procedure: The reaction was quenched by an equal volume of gel loading buffer consisting of 90% formamide and 50 mM EDTA. Samples were heated to 95°C for 5 min, resolved on a 22.5% polyacrylamide urea sequencing gel at 80 W, and then transferred to Whatman cellulose chromatography paper (Millipore Sigma). The gel was dried for 1 h on a gel dryer (Bio-Rad), exposed to a phosphor screen, and imaged using a Typhoon phosphorimager (GE Healthcare).

[12] = system: RSV-A/Long; assay: microbe, parasite or virus in culture; type: cell-based; conditions: human respiratory syncytial virus, HeLa cells, RT-qPCR
[13] = molecular target: T2, RSV L+P-JNJ-8003 complex (Human respiratory syncytial virus A, UniProt P28887); assay: SPR A-B-A competition with capping domain binder JNJ-8003; type: binding; conditions: 60 nM JNJ-8003 competitor
T2 construct: a biophysical SPR assay was established using full-length RSV L+P complex; Twin-Strep-tag (N); made in house; host or cells: Sf9 insect cells (baculovirus)
Procedure: (§3) Here, the competitor was held at a constant concentration (60 nM for JNJ-8003 and 150 nM for JNJ-7184) during baseline acquisition, association, and dissociation of the test compound.
(§4) The Biacore A-B-A injection method was used to assess compound binding competition. RSVpol was immobilized as above. […] Dissociation of any bound 22 was then measured for 500 s in the presence of a competitor. The temperature was 25°C, and the flow rate was kept at 30 µL/min.

[14] = molecular target: T1, RSV L+P; assay: Single-nucleotide incorporation (primer extension) assays; type: biochemical; conditions: 50 µM 22, primers AC, ACG, ACGA, ACGAG
Procedure: Reactions were initiated by the addition of 100 nM [α-^32P]NTP (3,000 Ci/mmol) tracer and run for an additional 30 min before quenching with an equal volume of gel loading buffer (90% formamide, 50 mM EDTA, 0.05% Xylene Cyanol and Bromophenol Blue). Gel images were obtained and processed as described for the de novo assay, and data were normalized to untreated controls to determine percent inhibition.

[15] = molecular target: T1, RSV L+P; assay: SPR assay; type: binding; conditions: 25°C
Procedure: A Biacore Series S SA (Cytiva) chip is first derivatized by a 60 s injection of 50 µg/mL Tris NTA-biotin (synthesized in-house). The chip was further conditioned by a 60 s injection of 350 mM EDTA (Cytiva, 28995043) followed by a 60 s injection of 0.5 mM NiCl2 (Cytiva, 28995043). Purified human, recombinant His-tagged RSV L+P protein (C-terminal 8× His) was captured via a 1,200 s injection at 30 µg/mL to obtain immobilization levels of 8,000–9,000 RU. The surface was then blocked with a 60 s injection of 100 µM PEG-biotin (Thermo Scientific). The experiments were performed at 25°C, using a Biacore 8K+ (Cytiva) and running buffer: 10 mM HEPES, 300 mM NaCl, 10 mM MgCl2, pH 7.4, 5% glycerol, 2% DMSO, 0.005% p20, 0.5 mM TCEP. […] Reference and buffer-blank subtracted data were analyzed with the Biacore 8K Insight Evaluation Software and fit to a 1:1 Langmuir model to obtain KD values and binding kinetics.

[16] = system: RSV-B/Wash/18537; assay: microbe, parasite or virus in culture; type: cell-based; conditions: human respiratory syncytial virus; RSV-B/Wash/18537, HeLa cells, RT-qPCR
[17] = in vitro; conditions: human
[18] = Metabolic stability in liver microsomes; conditions: in vitro intrinsic clearance in human liver microsomes, n = 1
[19] = molecular target: T3, RSV L+P-JNJ-7184 complex (Human respiratory syncytial virus A, UniProt P28887); assay: SPR A-B-A competition with connector domain binder JNJ-7184; type: binding; conditions: 150 nM JNJ-7184 competitor
T3 construct: a biophysical SPR assay was established using full-length RSV L+P complex; Twin-Strep-tag (N); made in house; host or cells: Sf9 insect cells (baculovirus)
Procedure: as §3, §4

[20] = system: HeLa cells; conditions: HeLa cytotoxicity
[21] = system: RSV-A/A2; assay: microbe, parasite or virus in culture; type: cell-based; conditions: human respiratory syncytial virus; RSV-A/A2, HeLa cells, RT-qPCR

T2 sequence (P28887 whole entry, the tested form may be a part): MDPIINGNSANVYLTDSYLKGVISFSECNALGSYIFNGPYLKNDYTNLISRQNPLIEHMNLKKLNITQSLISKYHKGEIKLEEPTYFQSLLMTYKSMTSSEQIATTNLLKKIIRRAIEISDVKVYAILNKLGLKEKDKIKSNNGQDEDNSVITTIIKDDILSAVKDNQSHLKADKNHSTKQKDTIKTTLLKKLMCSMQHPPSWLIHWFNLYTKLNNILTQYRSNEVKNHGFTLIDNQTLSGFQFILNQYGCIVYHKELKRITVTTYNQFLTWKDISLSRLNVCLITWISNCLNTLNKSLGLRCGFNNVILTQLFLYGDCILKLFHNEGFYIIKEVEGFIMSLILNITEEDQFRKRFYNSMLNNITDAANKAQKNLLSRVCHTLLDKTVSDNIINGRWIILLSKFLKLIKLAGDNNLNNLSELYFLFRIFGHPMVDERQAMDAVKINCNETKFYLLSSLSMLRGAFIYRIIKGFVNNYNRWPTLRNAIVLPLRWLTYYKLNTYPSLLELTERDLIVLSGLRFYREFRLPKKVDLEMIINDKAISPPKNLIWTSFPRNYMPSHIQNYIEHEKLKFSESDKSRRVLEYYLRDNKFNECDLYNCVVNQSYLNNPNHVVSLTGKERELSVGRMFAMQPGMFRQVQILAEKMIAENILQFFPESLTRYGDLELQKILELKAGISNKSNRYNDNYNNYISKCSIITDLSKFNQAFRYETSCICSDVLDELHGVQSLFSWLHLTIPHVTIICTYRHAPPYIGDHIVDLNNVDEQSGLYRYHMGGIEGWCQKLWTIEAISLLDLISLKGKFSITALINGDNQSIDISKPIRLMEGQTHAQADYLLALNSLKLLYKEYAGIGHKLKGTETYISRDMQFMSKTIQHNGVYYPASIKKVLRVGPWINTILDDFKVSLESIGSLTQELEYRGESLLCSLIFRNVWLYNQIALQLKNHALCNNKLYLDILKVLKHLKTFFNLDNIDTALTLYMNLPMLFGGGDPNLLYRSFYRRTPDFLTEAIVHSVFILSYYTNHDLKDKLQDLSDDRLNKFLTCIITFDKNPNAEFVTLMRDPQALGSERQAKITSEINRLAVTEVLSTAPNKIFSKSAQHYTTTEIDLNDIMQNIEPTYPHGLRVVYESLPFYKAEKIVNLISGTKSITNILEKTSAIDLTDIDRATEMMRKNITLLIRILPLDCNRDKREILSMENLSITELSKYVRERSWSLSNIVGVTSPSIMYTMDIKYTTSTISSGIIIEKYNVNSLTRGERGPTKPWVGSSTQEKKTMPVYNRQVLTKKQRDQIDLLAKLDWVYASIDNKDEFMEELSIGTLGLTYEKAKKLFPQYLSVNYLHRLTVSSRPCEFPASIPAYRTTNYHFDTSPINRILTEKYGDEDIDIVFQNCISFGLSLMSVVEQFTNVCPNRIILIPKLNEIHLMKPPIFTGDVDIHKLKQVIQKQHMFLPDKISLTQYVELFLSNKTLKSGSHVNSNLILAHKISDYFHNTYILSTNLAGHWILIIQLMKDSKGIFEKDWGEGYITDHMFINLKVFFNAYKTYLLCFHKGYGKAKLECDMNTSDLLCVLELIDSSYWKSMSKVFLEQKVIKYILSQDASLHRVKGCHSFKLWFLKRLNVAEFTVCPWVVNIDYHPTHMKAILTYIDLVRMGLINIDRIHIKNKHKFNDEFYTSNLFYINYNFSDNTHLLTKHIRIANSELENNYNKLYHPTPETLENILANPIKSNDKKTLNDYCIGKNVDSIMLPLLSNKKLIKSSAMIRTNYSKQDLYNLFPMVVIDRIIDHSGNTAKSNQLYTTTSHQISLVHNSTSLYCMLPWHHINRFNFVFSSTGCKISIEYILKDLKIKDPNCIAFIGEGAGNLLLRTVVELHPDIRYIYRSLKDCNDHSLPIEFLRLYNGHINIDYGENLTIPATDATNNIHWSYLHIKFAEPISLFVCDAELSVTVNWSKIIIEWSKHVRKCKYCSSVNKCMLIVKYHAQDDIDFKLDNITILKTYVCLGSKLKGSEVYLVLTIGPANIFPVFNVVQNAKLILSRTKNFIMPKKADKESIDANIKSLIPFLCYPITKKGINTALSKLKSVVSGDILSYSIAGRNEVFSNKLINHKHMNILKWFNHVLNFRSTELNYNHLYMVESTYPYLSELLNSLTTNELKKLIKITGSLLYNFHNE
T2 sequence (P03421 whole entry, further chain, the tested form may be a part): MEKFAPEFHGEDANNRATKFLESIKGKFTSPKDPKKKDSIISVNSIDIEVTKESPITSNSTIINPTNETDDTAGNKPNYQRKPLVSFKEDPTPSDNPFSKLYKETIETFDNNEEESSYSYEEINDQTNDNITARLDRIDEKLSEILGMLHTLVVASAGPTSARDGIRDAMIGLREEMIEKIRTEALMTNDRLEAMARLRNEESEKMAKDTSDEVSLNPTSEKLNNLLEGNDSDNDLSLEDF
T1 sequence (P03421 whole entry): as the sequence (P03421 whole entry, further chain, the tested form may be a part) above
T1 sequence (P28887 whole entry): as the sequence (P28887 whole entry, the tested form may be a part) above

CN1C(=O)C2(CCN(c3cnc(C#N)c(Cl)c3)CC2)c2cc(Br)ccc21 [Compound 22, 5-(5-bromo-1-methyl-2-oxospiro[indoline-3,4'-piperidin]-1'-yl)-3-chloropicolinonitrile]
IC50 ([1]; full-length RSV L+P, n ≥ 2, read-out: Biochemical IC50): 270 nM | Emax ([1]; read-out: Biochemical Emax): 105% | EC50 [2]: 2380 nM | EC50 ([2]; human respiratory syncytial virus, HeLa, 72 h): 2280 nM | Emax ([2]; human respiratory syncytial virus, read-out: Cellular Emax): 94% | EC50 [3]: 1000 nM | α (mixed model inhibition) with respect to UTP ([4]; mixed noncompetitive/uncompetitive): 0.33 ± 0.27 | α with respect to TrC-25 RNA template ([4]; noncompetitive): 1.1 ± 0.6 | IC50 [5]: > 100 µM | CC50 at 72 h [6]: > 50 µM | Cytotoxicity Emax [7]: 12.8% | EC50 [8]: 2220 nM | Yonetani-Theorell interaction constant γ ([9]; 22 titrated with capping domain inhibitor compound 23): 1.1 ± 0.2 | Yonetani-Theorell interaction constant γ ([9]; 22 titrated with connector domain inhibitor compound 24): 0.88 ± 0.72 | CC50 at 72 h [10]: > 50 µM | maximal inhibition of pppGA formation ([11]; +3 site): 85% | IC50 ([11]; +3 site, read-out: IC50 of de novo pppGA (pppGpA) formation): 290 nM | IC50 ([11]; IC50 of 11-mer product): 480 nM | maximal inhibition of 11-mer product [11]: 71% | EC50 [12]: 970 nM | SPR ka in the presence of JNJ-8003 [13]: 119000 M⁻¹ s⁻¹ | SPR kd in the presence of JNJ-8003 [13]: 0.0628 s⁻¹ | Kd ([13]; read-out: SPR KD in the presence of JNJ-8003): 530 nM | inhibition of primer extension, TrC-14 template [14]: inhibited | SPR kd ([15]; immobilized RSV L+P): 0.0609 s⁻¹ | Kd ([15]; immobilized full-length RSV L+P): 470 nM | EC50 [16]: 2700 nM | CC50 [17]: > 50 µM | HLM CLint [18]: 10.9 µL/min/mg microsomal protein | SPR ka in the presence of JNJ-7184 [19]: 140000 M⁻¹ s⁻¹ | SPR kd in the presence of JNJ-7184 [19]: 0.0725 s⁻¹ | Kd ([19]; read-out: SPR KD in the presence of JNJ-7184): 520 nM | CC50 ([20]; line RSV-A/A2): > 50 µM | CC50 ([20]; line RSV-A/Long): > 50 µM | CC50 ([20]; line RSV-B/Wash/18537): > 50 µM | EC50 [21]: 1100 nM
